Data as given in publication PMC8550792, “Evolution of kinase polypharmacology across HSP90 drug discovery” (Cell Chemical Biology, 2021).

Key:
Assay in all cases: biochemical
Assay type in all cases: biochemical
382 unique human kinases [1] = target: T1, 382 unique human kinases (Homo sapiens, UniProt Q15375); details: kinase EPHA7, compound 10 uM; for remaining activity at 10 µM: read-out: % Enzyme Activity (relative to DMSO controls)
T1 construct: purchased Reaction Biology (HotSpot contract assay)

382 unique human kinases [2] = target: T2, 382 unique human kinases (Homo sapiens, UniProt P19525); details: kinase EIF2AK2, compound 10 uM; for remaining activity at 10 µM: read-out: % Enzyme Activity (relative to DMSO controls)
T2 construct: purchased Reaction Biology (HotSpot contract assay)

382 unique human kinases [3] = target: T3, 382 unique human kinases (Homo sapiens, UniProt Q9Y2H1); details: STK38L/NDR2, compound at 10 uM, duplicate values; for remaining activity at 10 µM: read-out: % Enzyme Activity (relative to DMSO controls)
T3 construct: purchased Reaction Biology (HotSpot contract assay)

382 unique human kinases [4] = target: T4, 382 unique human kinases (Homo sapiens, UniProt Q02750, P124L); details: MEK1 (P124L), 10 uM; for remaining activity at 10 µM: read-out: % Enzyme Activity (relative to DMSO controls)
T4 construct: purchased Reaction Biology (HotSpot contract assay)

382 unique human kinases [5] = target: T5, 382 unique human kinases (Homo sapiens, UniProt P45984); details: kinase JNK2, compound 10 uM; for remaining activity at 10 µM: read-out: % Enzyme Activity (relative to DMSO controls)
T5 construct: purchased Reaction Biology (HotSpot contract assay)

382 unique human kinases [6] = target: T6, 382 unique human kinases (Homo sapiens, UniProt Q9BYT3); details: kinase STK33, compound 10 uM; for remaining activity at 10 µM: read-out: % Enzyme Activity (relative to DMSO controls)
T6 construct: purchased Reaction Biology (HotSpot contract assay)

382 unique human kinases [7] = target: T7, 382 unique human kinases (Homo sapiens, UniProt P10721, T670I/V559D); details: c-Kit (V559D/T670I), 10 uM; for remaining activity at 10 µM: read-out: % Enzyme Activity (relative to DMSO controls)
T7 construct: purchased Reaction Biology (HotSpot contract assay)

382 unique human kinases [8] = target: T8, 382 unique human kinases (Homo sapiens, UniProt Q07002); details: CDK18/cyclin Y (PCTK3), compound at 10 uM, duplicate values; for remaining activity at 10 µM: read-out: % Enzyme Activity (relative to DMSO controls)
T8 construct: purchased Reaction Biology (HotSpot contract assay)

382 unique human kinases [9] = target: T9, 382 unique human kinases (Homo sapiens, UniProt P10721, D816F); details: c-Kit (D816F), [ATP] 20 µM, compound 10 uM; for remaining activity at 10 µM: read-out: % Enzyme Activity (relative to DMSO controls)
T9 construct: purchased Reaction Biology (HotSpot contract assay)

382 unique human kinases [10] = target: T10, 382 unique human kinases (Homo sapiens, UniProt P06239); details: LCK, [ATP] 15 µM
T10 construct: purchased Reaction Biology (HotSpot contract assay)

382 unique human kinases [11] = target: T11, 382 unique human kinases (Homo sapiens, UniProt P28482); details: ERK2/MAPK1, 10 uM; for remaining activity at 10 µM: read-out: % Enzyme Activity (relative to DMSO controls)
T11 construct: purchased Reaction Biology (HotSpot contract assay)

382 unique human kinases [12] = target: T12, 382 unique human kinases (Homo sapiens, UniProt Q9NZJ5); details: EIF2AK3, 10 uM; for remaining activity at 10 µM: read-out: % Enzyme Activity (relative to DMSO controls)
T12 construct: purchased Reaction Biology (HotSpot contract assay)
T12 sequence (Q9NZJ5 30-1116): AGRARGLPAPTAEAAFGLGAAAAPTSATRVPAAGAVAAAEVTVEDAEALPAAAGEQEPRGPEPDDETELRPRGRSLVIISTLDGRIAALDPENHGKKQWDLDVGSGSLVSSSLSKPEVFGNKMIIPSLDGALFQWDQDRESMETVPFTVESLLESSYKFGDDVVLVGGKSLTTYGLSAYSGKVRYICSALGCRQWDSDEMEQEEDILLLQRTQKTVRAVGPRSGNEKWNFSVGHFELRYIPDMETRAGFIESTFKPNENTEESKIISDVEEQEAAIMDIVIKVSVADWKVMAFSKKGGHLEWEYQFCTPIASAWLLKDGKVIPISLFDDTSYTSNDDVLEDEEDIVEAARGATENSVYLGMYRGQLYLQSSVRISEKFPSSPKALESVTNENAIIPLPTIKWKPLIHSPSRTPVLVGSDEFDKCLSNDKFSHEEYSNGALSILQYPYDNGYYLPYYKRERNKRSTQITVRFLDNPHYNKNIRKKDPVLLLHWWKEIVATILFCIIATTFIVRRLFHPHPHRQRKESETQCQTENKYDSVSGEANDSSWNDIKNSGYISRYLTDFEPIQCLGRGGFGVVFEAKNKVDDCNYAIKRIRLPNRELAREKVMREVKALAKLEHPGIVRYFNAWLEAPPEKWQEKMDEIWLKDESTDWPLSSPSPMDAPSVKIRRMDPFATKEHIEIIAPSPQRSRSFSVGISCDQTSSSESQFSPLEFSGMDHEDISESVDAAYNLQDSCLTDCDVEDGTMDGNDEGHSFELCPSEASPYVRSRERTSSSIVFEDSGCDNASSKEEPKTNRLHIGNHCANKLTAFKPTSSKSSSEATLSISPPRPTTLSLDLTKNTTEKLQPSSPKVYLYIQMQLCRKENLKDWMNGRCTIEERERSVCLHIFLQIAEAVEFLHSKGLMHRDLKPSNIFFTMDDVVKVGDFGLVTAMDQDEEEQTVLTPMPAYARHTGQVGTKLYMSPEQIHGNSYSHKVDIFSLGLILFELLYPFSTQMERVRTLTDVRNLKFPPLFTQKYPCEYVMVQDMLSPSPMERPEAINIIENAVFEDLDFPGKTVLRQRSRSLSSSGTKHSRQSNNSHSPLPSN

382 unique human kinases [13] = target: T13, 382 unique human kinases (Homo sapiens, UniProt P16234, T674I); details: PDGFRa (T674I), [ATP] 20 µM, compound 10 uM; for remaining activity at 10 µM: read-out: % Enzyme Activity (relative to DMSO controls)
T13 construct: purchased Reaction Biology (HotSpot contract assay)

382 unique human kinases [14] = target: T14, 382 unique human kinases (Homo sapiens, UniProt Q02763, Y897S); details: TIE2 (Y897S), 10 uM; for remaining activity at 10 µM: read-out: % Enzyme Activity (relative to DMSO controls)
T14 construct: purchased Reaction Biology (HotSpot contract assay)

[15] = compound 10 uM, read-out: % Enzyme Activity (relative to DMSO controls)

T7 sequence (P10721 26-976 V559D/T670I): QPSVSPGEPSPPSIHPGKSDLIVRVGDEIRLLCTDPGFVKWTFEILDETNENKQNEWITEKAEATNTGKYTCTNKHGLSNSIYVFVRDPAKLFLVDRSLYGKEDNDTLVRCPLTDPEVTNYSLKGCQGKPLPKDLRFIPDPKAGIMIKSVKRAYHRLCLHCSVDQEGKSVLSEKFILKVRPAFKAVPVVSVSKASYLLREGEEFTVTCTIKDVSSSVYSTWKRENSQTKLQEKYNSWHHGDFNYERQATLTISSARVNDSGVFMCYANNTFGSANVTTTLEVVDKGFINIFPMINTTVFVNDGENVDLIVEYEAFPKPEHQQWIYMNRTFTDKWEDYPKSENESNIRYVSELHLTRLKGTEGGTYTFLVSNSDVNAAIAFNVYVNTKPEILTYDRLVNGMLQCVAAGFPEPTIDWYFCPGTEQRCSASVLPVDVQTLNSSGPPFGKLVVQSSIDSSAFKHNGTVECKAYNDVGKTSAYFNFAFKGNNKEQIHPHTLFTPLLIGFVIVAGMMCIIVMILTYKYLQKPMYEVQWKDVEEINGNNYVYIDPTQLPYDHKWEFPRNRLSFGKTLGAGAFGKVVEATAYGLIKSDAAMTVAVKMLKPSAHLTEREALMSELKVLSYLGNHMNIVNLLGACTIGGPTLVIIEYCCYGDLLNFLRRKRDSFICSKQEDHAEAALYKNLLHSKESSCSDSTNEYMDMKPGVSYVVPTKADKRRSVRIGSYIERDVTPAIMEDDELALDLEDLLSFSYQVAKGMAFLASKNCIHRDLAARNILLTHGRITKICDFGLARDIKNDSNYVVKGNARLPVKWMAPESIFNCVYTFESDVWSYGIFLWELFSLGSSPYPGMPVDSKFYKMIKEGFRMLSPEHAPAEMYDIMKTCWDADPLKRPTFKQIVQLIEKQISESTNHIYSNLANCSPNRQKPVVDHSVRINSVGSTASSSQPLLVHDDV
T13 sequence (P16234 24-1089 T674I): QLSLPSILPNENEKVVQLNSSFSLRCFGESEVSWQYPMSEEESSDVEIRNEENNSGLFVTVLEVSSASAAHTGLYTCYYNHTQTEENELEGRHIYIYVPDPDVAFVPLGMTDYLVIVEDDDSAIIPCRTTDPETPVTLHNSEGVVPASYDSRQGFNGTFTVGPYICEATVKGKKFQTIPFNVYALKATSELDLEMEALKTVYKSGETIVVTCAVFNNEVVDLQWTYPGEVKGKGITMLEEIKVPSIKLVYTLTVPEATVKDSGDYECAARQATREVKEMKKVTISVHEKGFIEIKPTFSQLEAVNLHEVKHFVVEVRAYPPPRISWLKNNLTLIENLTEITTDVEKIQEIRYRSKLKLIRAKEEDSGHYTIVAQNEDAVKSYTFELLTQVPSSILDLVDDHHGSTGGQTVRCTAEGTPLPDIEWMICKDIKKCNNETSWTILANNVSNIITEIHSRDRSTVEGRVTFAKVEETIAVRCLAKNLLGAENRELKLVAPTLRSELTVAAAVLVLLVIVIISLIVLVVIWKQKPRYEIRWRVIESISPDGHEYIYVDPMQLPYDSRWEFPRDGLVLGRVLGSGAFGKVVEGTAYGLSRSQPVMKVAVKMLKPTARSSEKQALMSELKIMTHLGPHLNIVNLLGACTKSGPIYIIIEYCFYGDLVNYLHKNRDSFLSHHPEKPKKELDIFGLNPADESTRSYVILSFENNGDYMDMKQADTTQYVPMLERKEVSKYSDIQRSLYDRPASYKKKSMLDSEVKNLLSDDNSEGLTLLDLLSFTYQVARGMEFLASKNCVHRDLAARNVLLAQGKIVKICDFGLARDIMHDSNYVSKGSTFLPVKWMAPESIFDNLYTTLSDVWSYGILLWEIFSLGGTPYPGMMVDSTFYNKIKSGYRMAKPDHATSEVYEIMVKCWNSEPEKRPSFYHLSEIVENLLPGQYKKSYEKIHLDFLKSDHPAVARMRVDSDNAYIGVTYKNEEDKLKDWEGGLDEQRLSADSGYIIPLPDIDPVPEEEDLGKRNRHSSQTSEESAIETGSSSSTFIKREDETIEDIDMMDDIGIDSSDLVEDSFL
T10 sequence (P06239 whole entry): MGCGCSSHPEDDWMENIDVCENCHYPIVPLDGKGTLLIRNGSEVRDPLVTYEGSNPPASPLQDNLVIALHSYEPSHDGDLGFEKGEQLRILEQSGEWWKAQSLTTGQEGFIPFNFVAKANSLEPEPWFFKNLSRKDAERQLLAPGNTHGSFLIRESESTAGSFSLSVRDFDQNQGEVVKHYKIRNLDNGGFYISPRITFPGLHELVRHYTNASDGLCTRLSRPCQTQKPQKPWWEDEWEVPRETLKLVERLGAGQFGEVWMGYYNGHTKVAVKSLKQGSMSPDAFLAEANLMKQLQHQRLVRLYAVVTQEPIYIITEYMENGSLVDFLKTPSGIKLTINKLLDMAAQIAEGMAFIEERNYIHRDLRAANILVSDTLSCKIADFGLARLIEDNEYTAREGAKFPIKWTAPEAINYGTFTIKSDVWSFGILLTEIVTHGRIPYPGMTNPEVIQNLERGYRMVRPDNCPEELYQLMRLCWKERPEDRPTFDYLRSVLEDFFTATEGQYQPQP
T8 sequence (Q07002 whole entry): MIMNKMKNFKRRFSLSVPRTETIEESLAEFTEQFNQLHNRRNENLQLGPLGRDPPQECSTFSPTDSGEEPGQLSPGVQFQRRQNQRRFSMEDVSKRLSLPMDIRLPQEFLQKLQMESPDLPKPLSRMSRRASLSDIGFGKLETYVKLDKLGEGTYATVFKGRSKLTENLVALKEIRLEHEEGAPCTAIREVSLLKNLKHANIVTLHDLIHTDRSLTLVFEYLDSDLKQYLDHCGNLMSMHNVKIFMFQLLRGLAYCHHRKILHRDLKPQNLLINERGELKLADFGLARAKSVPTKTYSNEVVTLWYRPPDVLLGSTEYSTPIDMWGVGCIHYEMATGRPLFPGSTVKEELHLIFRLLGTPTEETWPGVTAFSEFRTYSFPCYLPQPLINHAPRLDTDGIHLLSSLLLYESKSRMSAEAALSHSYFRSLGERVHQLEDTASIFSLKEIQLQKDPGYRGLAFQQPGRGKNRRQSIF
T2 sequence (P19525 whole entry): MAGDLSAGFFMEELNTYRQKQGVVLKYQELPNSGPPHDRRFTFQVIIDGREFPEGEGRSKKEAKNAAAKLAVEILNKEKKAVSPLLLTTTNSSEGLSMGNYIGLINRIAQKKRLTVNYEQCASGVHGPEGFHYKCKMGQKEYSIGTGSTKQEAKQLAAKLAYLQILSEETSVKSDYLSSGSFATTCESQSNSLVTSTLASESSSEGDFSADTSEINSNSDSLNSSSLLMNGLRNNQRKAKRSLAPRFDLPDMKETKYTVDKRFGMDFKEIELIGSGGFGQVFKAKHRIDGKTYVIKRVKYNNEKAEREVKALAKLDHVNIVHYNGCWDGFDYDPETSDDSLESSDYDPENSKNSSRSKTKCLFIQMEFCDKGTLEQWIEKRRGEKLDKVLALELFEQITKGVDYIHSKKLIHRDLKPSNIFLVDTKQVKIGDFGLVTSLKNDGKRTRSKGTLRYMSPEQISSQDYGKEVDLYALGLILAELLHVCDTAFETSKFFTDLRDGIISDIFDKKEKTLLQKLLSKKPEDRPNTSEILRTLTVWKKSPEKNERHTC
T6 sequence (Q9BYT3 whole entry): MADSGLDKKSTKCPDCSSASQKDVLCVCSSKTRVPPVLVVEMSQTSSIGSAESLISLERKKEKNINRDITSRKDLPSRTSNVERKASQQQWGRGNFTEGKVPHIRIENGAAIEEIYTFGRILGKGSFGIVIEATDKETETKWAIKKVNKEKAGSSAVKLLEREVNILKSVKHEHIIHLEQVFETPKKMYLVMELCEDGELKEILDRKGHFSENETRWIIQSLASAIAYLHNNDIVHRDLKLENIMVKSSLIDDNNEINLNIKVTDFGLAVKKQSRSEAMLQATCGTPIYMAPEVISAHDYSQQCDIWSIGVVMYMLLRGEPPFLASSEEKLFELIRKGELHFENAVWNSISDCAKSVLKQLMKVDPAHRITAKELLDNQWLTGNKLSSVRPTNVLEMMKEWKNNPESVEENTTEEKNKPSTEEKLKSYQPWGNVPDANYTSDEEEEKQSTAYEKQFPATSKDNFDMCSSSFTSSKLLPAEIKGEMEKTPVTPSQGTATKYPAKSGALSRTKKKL
T5 sequence (P45984 whole entry): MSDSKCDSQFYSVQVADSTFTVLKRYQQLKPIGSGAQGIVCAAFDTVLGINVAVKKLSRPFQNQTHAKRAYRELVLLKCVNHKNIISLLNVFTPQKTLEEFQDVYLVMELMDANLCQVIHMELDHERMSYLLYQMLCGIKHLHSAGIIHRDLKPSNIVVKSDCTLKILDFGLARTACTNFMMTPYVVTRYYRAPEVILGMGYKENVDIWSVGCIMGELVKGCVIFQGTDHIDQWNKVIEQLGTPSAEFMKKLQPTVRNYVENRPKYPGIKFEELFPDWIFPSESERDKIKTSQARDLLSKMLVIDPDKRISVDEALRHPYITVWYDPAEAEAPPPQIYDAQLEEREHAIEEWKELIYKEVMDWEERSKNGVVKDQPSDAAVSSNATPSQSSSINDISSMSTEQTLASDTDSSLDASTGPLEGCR
T3 sequence (Q9Y2H1 whole entry): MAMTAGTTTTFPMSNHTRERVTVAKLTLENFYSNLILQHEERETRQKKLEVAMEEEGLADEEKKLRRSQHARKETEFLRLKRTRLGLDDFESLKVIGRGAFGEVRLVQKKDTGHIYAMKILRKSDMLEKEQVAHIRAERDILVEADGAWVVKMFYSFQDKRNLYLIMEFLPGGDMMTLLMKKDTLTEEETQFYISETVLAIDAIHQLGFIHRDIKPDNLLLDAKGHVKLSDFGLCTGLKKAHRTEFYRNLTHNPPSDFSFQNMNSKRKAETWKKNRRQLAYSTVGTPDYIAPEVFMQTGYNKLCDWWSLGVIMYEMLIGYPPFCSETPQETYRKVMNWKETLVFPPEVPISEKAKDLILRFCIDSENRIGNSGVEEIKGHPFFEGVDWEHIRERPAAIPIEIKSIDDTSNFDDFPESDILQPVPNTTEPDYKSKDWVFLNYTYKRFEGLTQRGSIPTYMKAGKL
T9 sequence (P10721 26-976 D816F): as the sequence (P10721 26-976 V559D/T670I) above, with D534V, I645T, D791F counted along it

Structure (SMILES) | remaining activity at 10 µM (382 unique human kinases [1]) [%] | remaining activity at 10 µM (382 unique human kinases [2]) [%] | remaining activity at 10 µM (382 unique human kinases [3]) [%] | remaining activity at 10 µM (382 unique human kinases [4]) [%] | remaining activity at 10 µM (382 unique human kinases [5]) [%] | remaining activity at 10 µM (382 unique human kinases [6]) [%] | remaining activity at 10 µM (382 unique human kinases [7]) [%] | remaining activity at 10 µM (382 unique human kinases [8]) [%] | remaining activity at 10 µM (382 unique human kinases [9]) [%] | remaining activity at 10 µM (382 unique human kinases [10]; [15]) [%] | remaining activity at 10 µM (382 unique human kinases [11]) [%] | remaining activity at 10 µM (382 unique human kinases [12]) [%] | remaining activity at 10 µM (382 unique human kinases [13]) [%] | remaining activity at 10 µM (382 unique human kinases [14]) [%] | further results
CC(C)c1cc(-c2n[nH]c(=O)n2-c2ccc3c(ccn3C)c2)c(O)cc1O [Ganetespib (STA9090)] | 86.7 | 90.5 | 105 | 73.7 | 90 | 81.4 | 67.9 | 107 | – | – | – | – | – | – | –
CC(C)c1cc(-c2n[nH]c(=O)n2-c2ccc3c(ccn3C)c2)c(O)cc1O [Ganetespib] | – | – | – | – | – | – | – | – | 31 | 13.9 | 106 | 101 | 33.8 | 98.7 | remaining activity at 1 µM (382 unique human kinases [10]; compound 1 uM, read-out: % Enzyme Activity (relative to DMSO controls)): 49.3%
CCNC(=O)c1noc(-c2cc(C(C)C)c(O)cc2O)c1-c1ccc(CN2CCOCC2)cc1 [Luminespib (AUY-922)] | 97.9 | 108 | 108 | 102 | 99.7 | 104 | 91.5 | 111 | – | – | – | – | – | – | % Enzyme Activity (relative to DMSO controls) (382 unique human kinases [1]): 95.91%; % Enzyme Activity (relative to DMSO controls) (382 unique human kinases [2]): 107.07%; % Enzyme Activity (relative to DMSO controls) (382 unique human kinases [3]): 105.09%; % Enzyme Activity (relative to DMSO controls) (382 unique human kinases [4]): 99.77%; % Enzyme Activity (relative to DMSO controls) (382 unique human kinases [5]): 99.14%; % Enzyme Activity (relative to DMSO controls) (382 unique human kinases [6]): 103.02%; % Enzyme Activity (relative to DMSO controls) (382 unique human kinases [7]): 91.06%; % Enzyme Activity (relative to DMSO controls) (382 unique human kinases [8]): 109.58%
CCNC(=O)c1noc(-c2cc(C(C)C)c(O)cc2O)c1-c1ccc(CN2CCOCC2)cc1 [Luminespib] | – | – | – | – | – | – | – | – | 70.9 | 61 | 94.6 | 104 | 91.6 | 117 | % Enzyme Activity (relative to DMSO controls) (382 unique human kinases [9]): 70.41%; % Enzyme Activity (relative to DMSO controls) (382 unique human kinases [10]; compound 10 uM): 58.73%; % Enzyme Activity (relative to DMSO controls) (382 unique human kinases [11]): 93.52%; % Enzyme Activity (relative to DMSO controls) (382 unique human kinases [12]): 103.58%; % Enzyme Activity (relative to DMSO controls) (382 unique human kinases [13]): 89.59%; % Enzyme Activity (relative to DMSO controls) (382 unique human kinases [14]): 116.81%
